Test results reported in BigSolDB 2.1.

c1ccc2c(c1)Cc1ccccc1-2
solubility (mole fraction)
Settings | 278.15 K | 283.15 K | 288.15 K | 293.15 K | 298.15 K | 303.15 K | 308.15 K | 313.15 K | 318.15 K
in THF | 0.12 | 0.13 | 0.148 | 0.163 | 0.182 | 0.2 | 0.225 | 0.248 | 0.273
in acetone | 0.0353 | 0.0406 | 0.0482 | 0.0567 | 0.0658 | 0.0779 | 0.0931 | 0.109 | 0.126
in acetonitrile | 0.0101 | 0.0113 | 0.0138 | 0.0161 | 0.0197 | 0.0235 | 0.0288 | 0.0345 | 0.0406
in ethanol | 0.0038 | 0.00448 | 0.0055 | 0.00669 | 0.00816 | 0.00937 | 0.0111 | 0.0132 | 0.0154
in ethyl acetate | 0.046 | 0.0542 | 0.062 | 0.0737 | 0.0866 | 0.102 | 0.119 | 0.139 | 0.163
in ethyl formate | 0.0346 | 0.0395 | 0.046 | 0.0552 | 0.0654 | 0.0781 | 0.0933 | 0.112 | 0.133
in isobutyl acetate | 0.0546 | 0.0611 | 0.0718 | 0.0816 | 0.0914 | 0.104 | 0.124 | 0.142 | 0.162
in isopropanol | 0.00401 | 0.0045 | 0.00559 | 0.00675 | 0.00808 | 0.00943 | 0.0121 | 0.0149 | 0.0177
in isopropyl acetate | 0.044 | 0.0504 | 0.058 | 0.0695 | 0.0812 | 0.0936 | 0.11 | 0.127 | 0.148
in methanol | 0.00199 | 0.00235 | 0.00275 | 0.00313 | 0.00395 | 0.00452 | 0.00528 | 0.00645 | 0.00709
in methyl acetate | 0.0374 | 0.0422 | 0.0498 | 0.0607 | 0.0712 | 0.0856 | 0.1 | 0.12 | 0.142
in n-butyl acetate | 0.0693 | 0.0756 | 0.0874 | 0.0991 | 0.111 | 0.121 | 0.146 | 0.167 | 0.19
in n-propanol | 0.0052 | 0.00612 | 0.0072 | 0.009 | 0.0112 | 0.013 | 0.0155 | 0.0186 | 0.0216
in n-propyl acetate | 0.0596 | 0.0671 | 0.0763 | 0.0862 | 0.0969 | 0.108 | 0.134 | 0.153 | 0.176
